Twelve compounds from ChEMBL document CHEMBL1142332, “N-(3-(phenylcarbamoyl)arylpyrimidine)-5-carboxamides as potent and selective inhibitors of Lck: structure, synthesis and SAR” (Bioorg Med Chem Lett, 2008) can be followed below.

SMILES strings stand for the structures. Where only a bound is given, the exact number is not on record here.

The target of experiment [1] is T1, Tyrosine-protein kinase JAK3 (Homo sapiens, UniProt P52333).
T1 sequence (P52333 whole entry): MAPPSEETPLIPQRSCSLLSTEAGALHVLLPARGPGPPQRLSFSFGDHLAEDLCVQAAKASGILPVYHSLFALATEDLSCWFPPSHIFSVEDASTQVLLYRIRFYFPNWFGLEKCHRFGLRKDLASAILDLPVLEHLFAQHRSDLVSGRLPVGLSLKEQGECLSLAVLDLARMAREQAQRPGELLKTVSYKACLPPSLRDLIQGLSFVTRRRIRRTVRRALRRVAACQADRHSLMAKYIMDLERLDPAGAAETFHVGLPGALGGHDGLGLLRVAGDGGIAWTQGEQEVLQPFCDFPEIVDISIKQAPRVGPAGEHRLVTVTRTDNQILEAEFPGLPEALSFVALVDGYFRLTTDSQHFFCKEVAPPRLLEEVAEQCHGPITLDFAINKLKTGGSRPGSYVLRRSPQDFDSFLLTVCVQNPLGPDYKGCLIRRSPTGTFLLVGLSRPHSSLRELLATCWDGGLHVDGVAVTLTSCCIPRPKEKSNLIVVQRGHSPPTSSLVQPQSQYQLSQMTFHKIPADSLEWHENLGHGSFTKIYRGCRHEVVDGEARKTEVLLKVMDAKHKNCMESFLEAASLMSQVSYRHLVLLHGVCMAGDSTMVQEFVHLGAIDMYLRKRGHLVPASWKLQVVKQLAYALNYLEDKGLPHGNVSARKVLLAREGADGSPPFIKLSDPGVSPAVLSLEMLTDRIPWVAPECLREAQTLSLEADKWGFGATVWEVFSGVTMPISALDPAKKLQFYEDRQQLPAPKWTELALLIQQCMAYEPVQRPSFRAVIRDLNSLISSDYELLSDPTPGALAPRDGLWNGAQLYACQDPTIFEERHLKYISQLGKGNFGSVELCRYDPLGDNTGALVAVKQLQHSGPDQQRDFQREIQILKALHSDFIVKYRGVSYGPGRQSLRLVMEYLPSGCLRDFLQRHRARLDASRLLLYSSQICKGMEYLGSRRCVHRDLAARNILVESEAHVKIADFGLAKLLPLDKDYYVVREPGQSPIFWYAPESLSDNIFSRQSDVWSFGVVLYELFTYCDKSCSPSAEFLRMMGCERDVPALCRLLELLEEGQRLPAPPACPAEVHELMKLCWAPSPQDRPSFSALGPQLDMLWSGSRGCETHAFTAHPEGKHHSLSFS
The experiment can be described thus: Inhibition of Jak3.

Experiment [2] deals with Tyrosine-protein kinase Lck (Homo sapiens, UniProt P06239). As to the kind of experiment: Inhibition of Lck by HTRF assay. For orientation: Time-resolved FRET reads energy transfer from a long-lived donor to a nearby acceptor.
Experiment [3] addresses Vascular endothelial growth factor receptor 2 (Homo sapiens, UniProt P35968). As to the kind of experiment: Inhibition of KDR.
For experiment [4], the target named is Angiopoietin-1 receptor (Homo sapiens, UniProt Q02763). The experiment can be described thus: Inhibition of Tie2.
Experiment [5] concerns T-cell. The experiment can be described thus: Inhibition of T cell activation in human mixed lymphocyte reaction. Format: functional, cell-based.
Experiment [6] concerns the target Mitogen-activated protein kinase 14 (Homo sapiens, UniProt Q16539). The experiment can be described thus: Inhibition of p38alpha.

Angiopoietin-1 receptor, sequence (Q02763 whole entry): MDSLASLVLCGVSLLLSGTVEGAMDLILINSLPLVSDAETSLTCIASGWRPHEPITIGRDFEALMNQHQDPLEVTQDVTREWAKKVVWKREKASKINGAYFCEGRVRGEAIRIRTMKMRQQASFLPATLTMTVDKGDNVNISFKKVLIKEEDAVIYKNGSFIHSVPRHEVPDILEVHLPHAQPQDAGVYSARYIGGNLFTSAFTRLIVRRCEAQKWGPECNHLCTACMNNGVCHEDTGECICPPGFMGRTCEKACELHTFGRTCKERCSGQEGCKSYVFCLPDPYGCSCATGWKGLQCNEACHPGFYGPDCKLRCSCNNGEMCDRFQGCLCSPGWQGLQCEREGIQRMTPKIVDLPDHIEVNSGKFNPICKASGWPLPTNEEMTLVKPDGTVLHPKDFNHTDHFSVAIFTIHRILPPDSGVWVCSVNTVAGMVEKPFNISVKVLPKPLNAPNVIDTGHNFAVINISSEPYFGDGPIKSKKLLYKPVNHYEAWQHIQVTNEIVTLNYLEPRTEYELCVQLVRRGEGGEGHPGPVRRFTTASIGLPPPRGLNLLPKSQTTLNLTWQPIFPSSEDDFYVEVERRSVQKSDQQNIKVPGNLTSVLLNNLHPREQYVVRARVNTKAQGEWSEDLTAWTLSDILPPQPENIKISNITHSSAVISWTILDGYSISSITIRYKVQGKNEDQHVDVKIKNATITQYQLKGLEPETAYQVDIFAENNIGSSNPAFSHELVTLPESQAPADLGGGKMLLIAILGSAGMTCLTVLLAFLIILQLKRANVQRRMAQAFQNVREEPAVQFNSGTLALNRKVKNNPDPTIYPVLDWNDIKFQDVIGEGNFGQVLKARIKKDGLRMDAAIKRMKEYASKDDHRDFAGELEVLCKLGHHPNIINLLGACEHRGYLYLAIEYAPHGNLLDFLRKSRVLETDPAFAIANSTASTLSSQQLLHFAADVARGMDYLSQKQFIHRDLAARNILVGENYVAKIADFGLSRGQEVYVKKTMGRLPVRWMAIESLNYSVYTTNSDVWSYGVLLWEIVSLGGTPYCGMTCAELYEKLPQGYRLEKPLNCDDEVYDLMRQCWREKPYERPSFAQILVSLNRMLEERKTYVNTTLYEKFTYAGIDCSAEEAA
Mitogen-activated protein kinase 14, sequence (Q16539 whole entry): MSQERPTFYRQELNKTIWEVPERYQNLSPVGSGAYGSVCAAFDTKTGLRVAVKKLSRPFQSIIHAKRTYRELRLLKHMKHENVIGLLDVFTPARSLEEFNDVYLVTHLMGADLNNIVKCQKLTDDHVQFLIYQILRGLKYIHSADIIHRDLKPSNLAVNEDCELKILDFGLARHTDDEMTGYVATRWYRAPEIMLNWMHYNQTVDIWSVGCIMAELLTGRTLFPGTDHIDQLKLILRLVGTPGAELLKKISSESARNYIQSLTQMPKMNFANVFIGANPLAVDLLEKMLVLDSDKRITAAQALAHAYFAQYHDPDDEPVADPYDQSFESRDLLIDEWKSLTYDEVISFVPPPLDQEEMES
Vascular endothelial growth factor receptor 2, sequence (P35968 whole entry): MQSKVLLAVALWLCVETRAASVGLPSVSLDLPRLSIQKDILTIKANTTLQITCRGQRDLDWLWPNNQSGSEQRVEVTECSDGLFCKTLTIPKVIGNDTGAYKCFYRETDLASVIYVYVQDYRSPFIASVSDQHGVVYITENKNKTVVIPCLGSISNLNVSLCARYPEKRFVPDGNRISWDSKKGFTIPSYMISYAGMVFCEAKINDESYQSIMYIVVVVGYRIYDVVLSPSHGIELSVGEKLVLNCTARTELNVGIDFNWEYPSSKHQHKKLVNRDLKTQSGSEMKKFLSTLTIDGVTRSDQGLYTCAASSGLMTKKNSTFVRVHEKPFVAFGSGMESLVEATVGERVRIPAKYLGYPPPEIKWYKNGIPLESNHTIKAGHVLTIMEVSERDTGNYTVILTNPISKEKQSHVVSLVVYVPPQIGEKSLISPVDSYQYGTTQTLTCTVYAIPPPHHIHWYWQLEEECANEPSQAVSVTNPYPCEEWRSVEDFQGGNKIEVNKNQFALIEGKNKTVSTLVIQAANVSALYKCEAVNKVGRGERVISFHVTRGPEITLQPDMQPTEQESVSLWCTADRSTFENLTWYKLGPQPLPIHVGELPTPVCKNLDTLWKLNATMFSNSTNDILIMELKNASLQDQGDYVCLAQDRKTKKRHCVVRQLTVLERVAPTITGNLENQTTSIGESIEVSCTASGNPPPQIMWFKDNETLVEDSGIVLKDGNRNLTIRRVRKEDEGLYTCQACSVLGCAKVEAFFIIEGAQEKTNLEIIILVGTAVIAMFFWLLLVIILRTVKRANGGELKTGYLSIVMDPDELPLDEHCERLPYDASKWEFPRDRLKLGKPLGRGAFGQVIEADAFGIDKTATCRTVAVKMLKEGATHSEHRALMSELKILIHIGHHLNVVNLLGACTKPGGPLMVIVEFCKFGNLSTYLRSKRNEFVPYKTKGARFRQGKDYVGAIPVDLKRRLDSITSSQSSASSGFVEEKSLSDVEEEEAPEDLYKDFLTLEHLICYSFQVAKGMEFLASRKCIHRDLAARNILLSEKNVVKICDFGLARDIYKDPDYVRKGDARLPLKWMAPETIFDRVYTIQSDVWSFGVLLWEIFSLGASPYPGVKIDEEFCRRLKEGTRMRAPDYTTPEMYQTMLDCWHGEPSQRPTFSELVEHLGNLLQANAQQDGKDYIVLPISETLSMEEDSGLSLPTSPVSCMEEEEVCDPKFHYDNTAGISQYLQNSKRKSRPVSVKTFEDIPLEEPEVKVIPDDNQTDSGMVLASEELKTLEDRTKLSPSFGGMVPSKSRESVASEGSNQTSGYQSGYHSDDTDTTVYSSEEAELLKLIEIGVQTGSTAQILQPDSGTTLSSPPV
Tyrosine-protein kinase Lck, sequence (P06239 whole entry): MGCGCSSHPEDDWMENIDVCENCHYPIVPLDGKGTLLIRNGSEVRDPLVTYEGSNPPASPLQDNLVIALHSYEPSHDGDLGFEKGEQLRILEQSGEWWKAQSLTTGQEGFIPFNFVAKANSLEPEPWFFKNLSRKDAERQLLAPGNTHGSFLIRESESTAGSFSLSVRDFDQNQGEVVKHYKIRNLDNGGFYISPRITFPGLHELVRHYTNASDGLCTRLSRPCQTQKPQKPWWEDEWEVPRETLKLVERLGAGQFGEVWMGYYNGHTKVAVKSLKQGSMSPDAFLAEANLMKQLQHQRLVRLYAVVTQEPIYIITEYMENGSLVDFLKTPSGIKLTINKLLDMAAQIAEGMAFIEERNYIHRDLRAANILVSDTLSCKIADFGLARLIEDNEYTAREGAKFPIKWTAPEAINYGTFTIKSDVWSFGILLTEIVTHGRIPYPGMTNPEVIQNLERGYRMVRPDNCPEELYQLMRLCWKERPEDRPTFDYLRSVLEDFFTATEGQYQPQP

As to `COc1nc(NCCCCN(C)C)ncc1C(=O)Nc1cc(C(=O)Nc2cccc(C(F)(F)F)c2C)ccc1C`, the IC50 – broadly, the point on the concentration scale where inhibition reaches its midpoint – is above 25 µM in experiment [1], 0.045 µM in experiment [2], above 25 µM in experiment [3] and above 25 µM in experiment [4].
For the compound `CNc1ncc(C(=O)Nc2cc(C(=O)Nc3cccc(C(F)(F)F)c3F)ccc2C)c(OC)n1`, the half-maximal inhibitory concentration (IC50) in experiment [5] was above 10 µM; in experiment [1], above 25 µM; in experiment [2] it was 0.007 µM; in experiment [6], 0.254 µM; in experiment [3] it was above 25 µM; in experiment [4], above 25 µM.
For `COc1nc(NCCCN2CCN(C)CC2)ncc1C(=O)Nc1cc(C(=O)Nc2cccc(C(F)(F)F)c2C)ccc1C`, the IC50 in experiment [5] is 2.71 µM; in experiment [1], above 25 µM; in experiment [2], 0.019 µM; in experiment [3], above 25 µM; in experiment [4], above 25 µM.
For the compound `COc1nc(Nc2ccc(N3CCN(C)CC3)cc2)ncc1C(=O)Nc1cc(C(=O)Nc2cccc(C(F)(F)F)c2F)ccc1C`, the IC50 in experiment [5] was found to be 0.107 µM; in experiment [1], 0.334 µM; in experiment [2], 0.0006 µM; in experiment [6], 0.856 µM; in experiment [3], 0.255 µM; in experiment [4], 3.44 µM.
In the case of `CNc1ncc(C(=O)Nc2cc(C(=O)Nc3cccc(C(F)(F)F)c3F)ccc2C)c(NC)n1`, the IC50 was above 25 µM in experiment [1]; 0.084 µM in experiment [2]; 0.0024 µM in experiment [6]; 6.68 µM in experiment [3]; above 25 µM in experiment [4].
`COc1nc(NCCN2CCOCC2)ncc1C(=O)Nc1cc(C(=O)Nc2cccc(C(F)(F)F)c2)ccc1C`: the half-inhibitory concentration (IC50) in experiment [5] was 4.92 µM; in experiment [1], above 25 µM; in experiment [2], 0.022 µM; in experiment [3], 2.03 µM; in experiment [4] it was above 25 µM.
With `CNc1ncc(C(=O)Nc2cc(C(=O)Nc3cccc(C(F)(F)F)c3)ccc2C)c(OC)n1`, the concentration for half-maximal inhibition (IC50) in experiment [5] is above 10 µM; in experiment [1], above 25 µM; in experiment [2], 0.053 µM; in experiment [6] it was 2.72 µM; in experiment [3], 8.33 µM; in experiment [4], above 25 µM.
Take `CNc1ncc(C(=O)Nc2cc(C(=O)Nc3cccc(C(F)(F)F)c3)ccc2C)c(Oc2ccccc2)n1`: the IC50 in experiment [5] is above 10 µM; in experiment [1], above 25 µM; in experiment [2], 0.025 µM; in experiment [3], above 25 µM; in experiment [4], above 25 µM.
Consider `CNc1ncc(C(=O)Nc2cc(C(=O)Nc3cccc(C(F)(F)F)c3C)ccc2C)c(OC)n1`, for which the IC50 is above 10 µM in experiment [5]; above 25 µM in experiment [1]; 0.044 µM in experiment [2]; above 10 µM in experiment [6]; above 25 µM in experiment [3]; above 25 µM in experiment [4].
For the compound `COc1nc(NC2CCN(C)CC2)ncc1C(=O)Nc1cc(C(=O)Nc2cccc(C(F)(F)F)c2)ccc1C`, the IC50 in experiment [1] was above 25 µM; in experiment [2] it was 0.101 µM; in experiment [3], above 25 µM; in experiment [4], above 25 µM.
`Cc1ccc(C(=O)Nc2cccc(C(F)(F)F)c2)cc1-c1ccc2nc(N)ncc2c1`: in experiment [4], the 50% inhibitory concentration (IC50) was found to be 0.002 µM.
Regarding `Cc1ccc(C(=O)Nc2cccc(C(F)(F)F)c2)cc1NC(=O)c1cnc(NCCN2CCOCC2)nc1Oc1ccccc1`, the 50% inhibitory concentration (IC50) in experiment [5] is above 10 µM; in experiment [1], above 25 µM; in experiment [2], 0.041 µM; in experiment [3], above 25 µM; in experiment [4], above 25 µM.
